Consider one compound from patent publication US7855292B2, “Sulfonamide compounds” (Janssen Pharmaceutica NV, priority 2004, dated 2010).

The target of this test is T1, CCK2 receptor (Homo sapiens, UniProt P32239).
T1 construct: analyzed for ZFP expression as well as CCK2R induction upon addition of doxycycline to the culture medium; endogenous in cells
T1 sequence (P32239 1-447): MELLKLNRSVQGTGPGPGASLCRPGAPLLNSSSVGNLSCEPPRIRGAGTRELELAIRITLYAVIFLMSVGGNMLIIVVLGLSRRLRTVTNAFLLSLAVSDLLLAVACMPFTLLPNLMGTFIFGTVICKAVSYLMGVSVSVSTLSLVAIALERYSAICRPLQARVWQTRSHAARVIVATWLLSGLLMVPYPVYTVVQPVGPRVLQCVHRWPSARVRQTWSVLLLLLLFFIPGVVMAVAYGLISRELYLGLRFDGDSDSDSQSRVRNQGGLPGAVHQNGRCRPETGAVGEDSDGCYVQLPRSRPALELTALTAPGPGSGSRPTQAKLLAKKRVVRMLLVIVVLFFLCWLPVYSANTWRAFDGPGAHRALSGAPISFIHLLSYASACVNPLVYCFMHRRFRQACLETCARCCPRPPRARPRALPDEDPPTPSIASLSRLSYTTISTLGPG
The experiment in a line: CCK2 binding assay ([125I]-BH-CCK-8S displacement, HEKZFP membranes). The note with it: membranes of doxycycline-induced HEKZFP cells; 20 pM [125I]-BH-CCK-8S; 60 min at 21±3° C.; read-out: CCK2 pKi (converted).

For the compound `O=C(N[C@@H](Cc1ccc(Cl)c(Cl)c1)C(=O)O)c1ccc(I)cc1NS(=O)(=O)c1cccc2nsnc12` [Example 2, (S)-2-[2-(Benzo[1,2,5]thiadiazole-4-sulfonylamino)-4-iodo-benzoylamino]-3-(3,4-dichloro-phenyl)-propionic acid], the Ki was 0.0316 µM.
